target: T1, FLuc-C-HiBiT (Photinus pyralis, UniProt P08659); assay: biochemical; details: enzyme activity, 10 uM ATP; read-out: IC50 or SDR50 (mM) / FLuc E
T1 construct: firefly luciferase with C-terminal HiBiT tag, E. coli expressed
T1 sequence (P08659 whole entry, looked up): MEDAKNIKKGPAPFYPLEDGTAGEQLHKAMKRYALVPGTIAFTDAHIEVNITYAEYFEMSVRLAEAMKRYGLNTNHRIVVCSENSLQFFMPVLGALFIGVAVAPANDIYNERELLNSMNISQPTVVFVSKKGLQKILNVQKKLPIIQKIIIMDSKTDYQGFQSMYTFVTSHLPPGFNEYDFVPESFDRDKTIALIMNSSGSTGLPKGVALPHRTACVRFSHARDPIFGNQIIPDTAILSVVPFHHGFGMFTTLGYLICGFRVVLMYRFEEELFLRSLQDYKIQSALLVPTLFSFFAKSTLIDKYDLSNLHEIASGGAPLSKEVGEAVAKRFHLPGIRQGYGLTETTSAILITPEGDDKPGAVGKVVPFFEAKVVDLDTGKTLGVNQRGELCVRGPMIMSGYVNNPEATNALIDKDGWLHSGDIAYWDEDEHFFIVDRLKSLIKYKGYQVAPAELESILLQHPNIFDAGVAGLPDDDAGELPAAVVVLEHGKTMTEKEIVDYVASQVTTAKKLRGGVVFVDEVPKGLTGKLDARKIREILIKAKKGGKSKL

| Structure (SMILES) | IC50 |
| --- | --- |
| O=C(COc1ccccc1Cl)Nc1ccc(-c2nc3ccccc3s2)cc1 [NCGC00098726-01] | > 30 µM |
| COc1cccc(Nc2cc3c(cn2)CN(C(C)=O)CCN3)c1 [NCGC00411096-01] | 9.04 µM |
| Cc1ccc(-c2nc(C)c(CCNC(=O)c3cccs3)s2)cc1 [NCGC00135815-01] | 17.6 µM |
| O=C1c2cnc(-c3cccc(F)c3)nc2OCCN1c1ccccc1 [NCGC00413626-01] | 14.3 µM |
| Cc1ccc(-c2noc(-c3ccccc3Br)n2)cc1 [NCGC00079622-01] | 1.57 µM |
| c1ccc(CNc2nc(-c3ccccc3)no2)cc1 [NCGC00422290-01] | 17.6 µM |
| CCc1ccc(NC(=O)c2cc3ccccn3n2)cc1 [NCGC00127901-01] | 1.76 µM |
| N#Cc1c(-n2ncnc2-c2ccccc2Cl)sc2c1CCCCC2 [NCGC00099372-01] | 2.21 µM |
| COc1ccc(C(=O)Oc2ccc(C(c3c(C)n[nH]c3O)c3c(C)n[nH]c3O)cc2)cc1 [NCGC00100425-01] | 9.89 µM |
| O=C(Nc1nc2c(F)cccc2s1)c1ccc2c(c1)OCCO2 [NCGC00141660-01] | 0.495 µM |
| CCOc1ccccc1C(=O)Nc1nc2c(s1)CC(C)CC2 (stereo not drawn) [NCGC00119172-01] | 4.42 µM |
| Cc1cccc(-n2ncc3c(N4CCCCCC4)ncnc32)c1 [NCGC00139171-01] | 0.881 µM |
| Nc1nc2c(nc(S)n2[C@@H]2O[C@H](CO)[C@@H](O)[C@H]2O)c(=O)[nH]1 [NCGC00096124-01] | 2.48 µM |
| Cc1cccc(-c2nnc(SCCC(=O)O)o2)c1 [NCGC00103138-01] | 4.95 µM |
| COCCNC(=O)[C@@H](C)C1CC[C@@]2(C)Cc3sc(CSc4ccccc4)nc3[C@@H](C)[C@@H]2[C@H]1O (stereo partly drawn) [NCGC00391430-01] | 11.1 µM |
| CCc1ccc(C2=CC(c3cccc(C)c3)n3c(nc4ccccc43)N2)cc1 (stereo not drawn) [NCGC00140745-01] | 0.881 µM |
| CCc1ccc2oc(-c3ccc(NC(=O)c4ccc(OC)c(Br)c4)cc3)nc2c1 [NCGC00098340-01] | > 30 µM |
| CC(=O)NC1(C)CN(Cc2ccc(-c3ccccc3OCc3ccccc3)s2)C1 [NCGC00410438-01] | 22.7 µM |
| COc1cccc(CC(=O)Nc2ccc(-c3nc4ccccc4s3)cc2)c1 [NCGC00137800-01] | 8.81 µM |
| Cc1nn(-c2ccc(C(C)(C)C)cc2)c(C)c1[C@@H]1C=C[C@@H](NC(=O)c2ccco2)C1 [NCGC00394638-01] | 20.2 µM |
| O=C(Nc1cc(-c2nc3ccccc3s2)ccc1Cl)c1cc2ccccc2o1 [NCGC00098905-01] | > 30 µM |
| O=c1oc2ccc(F)cc2cc1-c1nc(-c2cccs2)no1 [NCGC00123380-01] | 3.13 µM |
| Cc1ccc(C(=O)O)cc1Nc1nc2ccccc2n2nnnc12 [NCGC00106886-01] | 12.4 µM |
| COc1ccc(-c2nc(C)c(CCNC(=O)c3cccs3)s2)cc1 [NCGC00135787-01] | 11.1 µM |
| O=[S+]([O-])(c1cccc(Cl)c1)n1c(/C=C/c2ccccc2Cl)nc2ccccc21 [NCGC00139448-01] | 0.176 µM |
| c1ccc(-c2noc(-c3ccc4ccccc4c3)n2)cc1 [NCGC00045018-01] | 0.7 µM |
| COc1cccc2cc(C(=O)Nc3ccc(C)cc3)c(=O)oc12 [NCGC00099361-01] | 0.495 µM |

| Structure (SMILES) | IC50 |
| --- | --- |
| O=C(NCc1cccc(Cl)c1)C1CCCN(c2nn3cc(-c4ccc(F)cc4)nc3s2)C1 (stereo not drawn) [NCGC00123714-01] | 8.81 µM |
| Cc1ccc2nc(-c3ccc(/N=N/c4cc(S(=O)(=O)O)c5ccccc5c4O)cc3)sc2c1S(=O)(=O)O [NCGC00161973-01] | 12.4 µM |
| CN(C)C(=O)c1ccc(-c2cccc(-c3ccn(CC4CC4)n3)c2)o1 [NCGC00426335-01] | 7.85 µM |
| COc1ccc(Br)cc1C(=O)Nc1nc2ccc(F)cc2s1 [NCGC00102907-01] | > 30 µM |
| COc1ccc(-c2nc3ccccc3s2)cc1NC(=O)c1cccc([N+](=O)[O-])c1C [NCGC00102361-01] | 6.24 µM |
| CCOc1ccc(C(=O)Nc2cc(-c3nc4ccccc4s3)ccc2OC)cc1 [NCGC00103040-01] | > 30 µM |
| O=C(Nc1onc2c1CCCC2)c1ccccc1 [NCGC00115884-01] | 11.1 µM |
| COCCN1CCOc2nc(-c3cccc(N(C)C)c3)ncc2C1=O [NCGC00413458-01] | 18 µM |
| Cc1c(C(=O)Nc2cccc(-c3nc4ccccc4s3)c2)oc2ccccc12 [NCGC00119181-01] | > 30 µM |
| COc1ccc(C(=O)Nc2cc(C(C)C)c(O)c([S+](=O)([O-])c3ccc(Cl)cc3)c2C)cc1 [NCGC00102536-01] | 12.4 µM |
| COCC(C)Nc1ncnc2c1cnn2-c1cccc(Cl)c1 (stereo not drawn) [NCGC00139080-01] | 11.1 µM |
| COc1ccc2cc(-c3nc4ccc(C(=O)O)cc4[nH]3)c(=O)oc2c1 [NCGC00138156-01] | 0.0157 µM |
| COc1ccc(Nc2cc(C(=O)NC3CCC(C)CC3)c3ccccc3n2)cc1OC (stereo not drawn) [NCGC00108132-01] | > 30 µM |
| COc1ccc(/C=C/c2ccc3c(c2)C(=O)N2CC[C@H](NC(=O)CCC(=O)O)[C@H]2C(=O)N3)cc1 [NCGC00391742-01] | 12.4 µM |
| O=C(Nc1cccc(F)c1)Nc1ccc2n(c1=O)C[C@H]1C[C@@H]2CN(C(=O)c2ccc(F)cc2)C1 [NCGC00398007-01] | 7 µM |
| CC1CCCN(c2ncnc3c2cnn3-c2ccccc2)C1 (stereo not drawn) [NCGC00081381-02] | 0.442 µM |
| Cc1ccn2c(Nc3ccc(C(C)C)cc3)c(-c3cccs3)nc2c1 [NCGC00106676-01] | 11.1 µM |
| Cc1ccc(Cl)cc1NC(=O)c1cc(-c2ccc3c(c2)OCCO3)on1 [NCGC00118917-01] | 1.76 µM |
| COc1ccc(-c2noc([C@@H]3C[C@@H](O)CN3Cc3cccs3)n2)cc1 [NCGC00400674-01] | 20.2 µM |
| O=C(O)c1cccc(-c2noc(-c3cccc([N+](=O)[O-])c3)n2)c1 [NCGC00253775-01] | 0.007 µM |
| CN(C)c1cccc(-c2ncc3c(n2)OCCN(c2ccccc2)C3=O)c1 [NCGC00413615-01] | 12.8 µM |
| CCCCCc1nn2cc(-c3ccccc3)nc2s1 [NCGC00117458-01] | 0.624 µM |
| CCc1ccc(CNC(=O)C2CCCN(c3nn4cc(-c5ccc(F)cc5)nc4s3)C2)cc1 (stereo not drawn) [NCGC00123722-01] | > 30 µM |
| CC(=O)NC1(C)CN(Cc2ccc(-c3ccc(Oc4ccccc4)cc3)s2)C1 [NCGC00410351-01] | 25.5 µM |
| O=C(O)c1ccc(-c2noc(-c3ccc(F)cc3)n2)cc1 [NCGC00168098-01] | 0.442 µM |
| Oc1cc(-c2nc3ccccc3s2)cc2c1OCCN(Cc1c[nH]nc1-c1ccc(Cl)cc1)C2 [NCGC00240676-01] | > 30 µM |
| Cc1ccc(C(=O)COC(=O)c2cc(-c3cccs3)nc3ccccc23)cc1 [NCGC00100788-01] | 12.4 µM |

The next lines start with the values.

| IC50 | Structure (SMILES) |
| --- | --- |
| 19.7 µM | c1ccc(-c2ccnc(NCCc3c[nH]c4ccccc34)n2)nc1 [NCGC00446312-01] |
| 5.56 µM | c1c(-c2nc(C3CCOC3)no2)sc2c1CCCC2 (stereo not drawn) [NCGC00443783-01] |
| > 30 µM | CN(C1CCc2ccccc2C1)[S+](=O)([O-])c1cccs1 (stereo not drawn) [NCGC00480121-01] |
| > 30 µM | COc1cccc(CN2CCc3c(cc(C(=O)Nc4cc(C)ccc4OC)n3C)C2)c1 [NCGC00430592-01] |
| 11.1 µM | NC(=O)C1CCCN(c2ncnc3c2cnn3-c2ccccc2)C1 (stereo not drawn) [NCGC00644764-01] |
| 17.6 µM | O=C1CC(c2ccccc2)N(C(=O)CNC(=O)Nc2ccc3c(c2)OCCO3)CCCCCN1 (stereo not drawn) [NCGC00465553-01] |
| 12.4 µM | Cc1ccc(-c2nc(C(=O)N(C)Cc3ccccc3)no2)cc1 [NCGC00447109-01] |
| 7.85 µM | Cc1ccc(-c2cc3c(=O)n(CCNC(=O)c4cccc5[nH]ccc45)ccn3n2)cc1C [NCGC00457046-01] |
| 9.89 µM | Cc1cn2nc(C(=O)Nc3ccc(C(=O)N4CCCC4)cc3)cc2c(=O)[nH]1 [NCGC00453923-01] |
| 4.42 µM | Cc1cc(Cl)ccc1-n1ncc2c(N3CCCCC3)ncnc21 [NCGC00651954-01] |
| 12.4 µM | Cc1ccc(NC(=O)c2ccc3c(c2)N(C)C2CCCN2C3=O)cc1C (stereo not drawn) [NCGC00452108-01] |
| 9.89 µM | Cc1ccc(-c2cc3c(=O)n(CCNC(=O)c4cccnc4)ccn3n2)c(C)c1 [NCGC00456961-01] |
| 0.157 µM | Cc1ccc(-n2ncc3c(N4CCCC(C)C4)ncnc32)cc1C (stereo not drawn) [NCGC00523591-01] |
| 1.97 µM | CCCN1C(=O)c2ccc(-c3nc4ccccc4s3)cc2C1=O [NCGC00597617-01] |
| 1.97 µM | Cc1cc(NC(=O)c2ccc(CN3CC[C@H](O)C3)cc2)ccc1F [NCGC00432832-01] |
| 2.48 µM | Cc1ccc(-c2cc3c(=O)n(CCNC(=O)C4CCCCC4)ccn3n2)c(C)c1 [NCGC00456958-01] |
| 3.94 µM | COc1ccc(-c2cc(N3CCCC(NC(=O)c4ccc(OC)c(OC)c4)C3)[nH]n2)cc1 (stereo not drawn) [NCGC00437624-01] |
| 5.56 µM | COc1ccc(-c2cc(N3CCCC(NC(=O)c4cc(OC)c(OC)c(OC)c4)C3)[nH]n2)cc1 (stereo not drawn) [NCGC00437614-01] |
| 11.1 µM | Cc1cc(CNC(=O)C2(C(N)=O)CC2)c2[nH]c(-c3ccccc3)c(C)c2c1 [NCGC00426839-01] |
| > 30 µM | CCn1cc(-c2ccc(Cl)cc2)cc1C(=O)O [NCGC00432653-01] |
| > 30 µM | Cc1cncc(C(=O)N2CCOc3c(O)cc(-c4nc5ccccc5s4)cc3C2)c1 [NCGC00433624-01] |
| 11.1 µM | CCn1c(C2CCCN(C(=O)Nc3ccc4c(c3)OCCO4)C2)nn(C)c1=O (stereo not drawn) [NCGC00439046-01] |
| 12.4 µM | COCCNc1cc(-c2ccc3ccccc3n2)c2cc[nH]c2n1 [NCGC00440476-01] |
| 9.89 µM | COc1ccc(-c2cc3c(=O)n(CCNC(=O)Cc4cccs4)ccn3n2)cc1 [NCGC00456924-01] |
| 5.56 µM | COc1ccc(C(=O)N2CCc3ccc(C(=O)Nc4ccc5c(c4)OCCO5)cc32)cc1 [NCGC00430278-01] |
| 0.881 µM | COc1ccc(NC(=O)N2CCc3c(C(=O)Nc4ccc5c(c4)OCO5)cccc32)cc1 [NCGC00430172-01] |
| 11.1 µM | COc1ccc(-c2cc(N3CCCC(NC(=O)c4ccncc4)C3)[nH]n2)cc1 (stereo not drawn) [NCGC00437632-01] |
| 9.89 µM | COc1cccc(CNC(=O)N2c3ccccc3CC2c2noc(C3CCOCC3)n2)c1 (stereo not drawn) [NCGC00471511-01] |
| > 30 µM | O=C(Nc1ccccc1)N1CCc2nc(C3CC3)nc(-c3ccc(Cl)cc3)c2C1 [NCGC00480419-01] |
| > 30 µM | c1ccc(CCCc2noc(-c3ccc(NCc4ccccn4)nc3)n2)cc1 [NCGC00440648-01] |
